According to US6525001B1, “Substituted pyrimidine and pyridine herbicides” (Mid-American Commercialization Corporation, priority 1997, dated 2003):

Columns and labels:
Assay in all cases: Test B pre-/postemergence
Assay type in all cases: in vivo
Design in all cases: key: 0 is no effect; 10 is complete control
[1] = tested on: bedstraw (Galium aparine)
Method in brief: (§1)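 Scored visually 0 (none) to 10 (complete control) against untreated plants after twelve to sixteen greenhouse days. Test chemicals, formulated in surfactant-containing non-phytotoxic solvent, applied to soil after planting and, separately, onto 1- to 4-leaf (2–18 cm) plants.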

[2] = tested on: blackgrass (Alopecurus myosuroides)
Method in brief: as §1

[3] = tested on: broadleaf signalgrass (Brachiaria decumbens)
Method in brief: as §1

[4] = tested on: cocklebur (Xanthium strumarium)
Method in brief: as §1

corn (Zea mays) = tested on: corn (Zea mays)
Method in brief: as §1

[5] = tested on: crabgrass (Digitaria sanguinalis)
Method in brief: as §1

[6] = tested on: giant foxtail (Setaria faberii)
Method in brief: as §1

[7] = tested on: momingglory (Ipomoea hederacea)
Method in brief: as §1

[8] = tested on: pigweed (Amaranthus retroflexus)
Method in brief: as §1

rape (Brassica napus) = tested on: rape (Brassica napus)
Method in brief: as §1

soybean (Glycine max) = tested on: soybean (Glycine max)
Method in brief: as §1

[9] = tested on: sugar beet (Beta vulgaris)
Method in brief: as §1

[10] = tested on: velvetleaf (Abutilon theophrasti)
Method in brief: as §1

[11] = tested on: wheat (Triticum aestivum)
Method in brief: as §1

[12] = Preemergence, Rate 62 g/ha, scale of 0 to 10

SMILES: Cc1cnc(-c2ccc(C(F)(F)F)cc2)nc1Cn1ccc(C#N)n1 [Compound 53]
- Plant response rating, Bedstraw [1, 12]: 1
- Bedstraw plant response rating ([1]; Rate 62 g/ha, Postemergence): 5
- Bedstraw plant response rating ([1]; Rate 125 g/ha, Postemergence): 8
- Plant response rating, Bedstraw ([1]; Rate 125 g/ha, Preemergence): 3
- Plant response rating, Bedstraw ([1]; Rate 250 g/ha, Postemergence): 10
- Plant response rating, Bedstraw ([1]; Rate 250 g/ha, Preemergence): 7
- Plant response rating, Bedstraw ([1]; Rate 500 g/ha, Postemergence): 10
- Plant response rating, Bedstraw ([1]; Rate 500 g/ha, Preemergence): 8
- Plant response rating, Blackgrass [2, 12]: 0
- Blackgrass plant response rating ([2]; Rate 62 g/ha, Postemergence): 1
- Blackgrass plant response rating ([2]; Rate 125 g/ha, Postemergence): 1
- Plant response rating, Blackgrass ([2]; Rate 125 g/ha, Preemergence): 0
- Plant response rating, Blackgrass ([2]; Rate 250 g/ha, Postemergence): 1
- Plant response rating, Blackgrass ([2]; Rate 250 g/ha, Preemergence): 1
- Plant response rating, Blackgrass ([2]; Rate 500 g/ha, Postemergence): 6
- Plant response rating, Blackgrass ([2]; Rate 500 g/ha, Preemergence): 2
- B. signalgrass plant response rating ([3]; Rate 62 g/ha, Postemergence): 1
- B. signalgrass plant response rating ([3]; Rate 62 g/ha, Preemergence): 0
- B. signalgrass plant response rating ([3]; Rate 125 g/ha, Postemergence): 1
- Plant response rating, B. signalgrass ([3]; Rate 125 g/ha, Preemergence): 1
- Plant response rating, B. signalgrass ([3]; Rate 250 g/ha, Postemergence): 2
- Plant response rating, B. signalgrass ([3]; Rate 250 g/ha, Preemergence): 2
- Plant response rating, B. signalgrass ([3]; Rate 500 g/ha, Postemergence): 2
- Plant response rating, B. signalgrass ([3]; Rate 500 g/ha, Preemergence): 6
- Plant response rating, Cocklebur [4, 12]: 0
- Cocklebur plant response rating ([4]; Rate 62 g/ha, Postemergence): 5
- Cocklebur plant response rating ([4]; Rate 125 g/ha, Postemergence): 5
- Plant response rating, Cocklebur ([4]; Rate 125 g/ha, Preemergence): 0
- Plant response rating, Cocklebur ([4]; Rate 250 g/ha, Postemergence): 6
- Plant response rating, Cocklebur ([4]; Rate 250 g/ha, Preemergence): 0
- Plant response rating, Cocklebur ([4]; Rate 500 g/ha, Postemergence): 6
- Plant response rating, Cocklebur ([4]; Rate 500 g/ha, Preemergence): 1
- Plant response rating, Corn (corn (Zea mays); [12]): 0
- Corn plant response rating (corn (Zea mays); Rate 62 g/ha, Postemergence): 1
- Corn plant response rating (corn (Zea mays); Rate 125 g/ha, Postemergence): 1
- Plant response rating, Corn (corn (Zea mays); Rate 125 g/ha, Preemergence): 0
- Plant response rating, Corn (corn (Zea mays); Rate 250 g/ha, Postemergence): 1
- Plant response rating, Corn (corn (Zea mays); Rate 250 g/ha, Preemergence): 0
- Plant response rating, Corn (corn (Zea mays); Rate 500 g/ha, Postemergence): 1
- Plant response rating, Corn (corn (Zea mays); Rate 500 g/ha, Preemergence): 0
- Crabgrass plant response rating ([5]; Rate 62 g/ha, Postemergence): 1
- Crabgrass plant response rating ([5]; Rate 125 g/ha, Postemergence): 2
- Plant response rating, Crabgrass ([5]; Rate 125 g/ha, Preemergence): 4
- Plant response rating, Crabgrass ([5]; Rate 250 g/ha, Postemergence): 4
- Plant response rating, Crabgrass ([5]; Rate 250 g/ha, Preemergence): 6
- Plant response rating, Crabgrass ([5]; Rate 500 g/ha, Postemergence): 4
- Plant response rating, Crabgrass ([5]; Rate 500 g/ha, Preemergence): 8
- Plant response rating, Giant foxtail [6, 12]: 1
- Giant foxtail plant response rating ([6]; Rate 62 g/ha, Postemergence): 1
- Giant foxtail plant response rating ([6]; Rate 125 g/ha, Postemergence): 1
- Plant response rating, Giant foxtail ([6]; Rate 125 g/ha, Preemergence): 5
- Plant response rating, Giant foxtail ([6]; Rate 250 g/ha, Postemergence): 1
- Plant response rating, Giant foxtail ([6]; Rate 250 g/ha, Preemergence): 6
- Plant response rating, Giant foxtail ([6]; Rate 500 g/ha, Postemergence): 2
- Plant response rating, Giant foxtail ([6]; Rate 500 g/ha, Preemergence): 6
- Plant response rating, Morningglory [7, 12]: 1
- Morningglory plant response rating ([7]; Rate 125 g/ha, Postemergence): 3
- Plant response rating, Morningglory ([7]; Rate 125 g/ha, Preemergence): 2
- Plant response rating, Morningglory ([7]; Rate 250 g/ha, Preemergence): 2
- Plant response rating, Morningglory ([7]; Rate 500 g/ha, Postemergence): 3
- Plant response rating, Morningglory ([7]; Rate 500 g/ha, Preemergence): 5
- Plant response rating, Redroot pigweed [8, 12]: 0
- Redroot pigweed plant response rating ([8]; Rate 62 g/ha, Postemergence): 2
- Redroot pigweed plant response rating ([8]; Rate 125 g/ha, Postemergence): 6
- Plant response rating, Redroot pigweed ([8]; Rate 125 g/ha, Preemergence): 2
- Plant response rating, Redroot pigweed ([8]; Rate 250 g/ha, Postemergence): 7
- Plant response rating, Redroot pigweed ([8]; Rate 250 g/ha, Preemergence): 7
- Plant response rating, Redroot pigweed ([8]; Rate 500 g/ha, Postemergence): 7
- Plant response rating, Redroot pigweed ([8]; Rate 500 g/ha, Preemergence): 8
- Plant response rating, Rape (rape (Brassica napus); [12]): 2
- Rape plant response rating (rape (Brassica napus); Rate 62 g/ha, Postemergence): 8
- Rape plant response rating (rape (Brassica napus); Rate 125 g/ha, Postemergence): 8
- Plant response rating, Rape (rape (Brassica napus); Rate 125 g/ha, Preemergence): 5
- Plant response rating, Rape (rape (Brassica napus); Rate 250 g/ha, Postemergence): 8
- Plant response rating, Rape (rape (Brassica napus); Rate 250 g/ha, Preemergence): 7
- Plant response rating, Rape (rape (Brassica napus); Rate 500 g/ha, Postemergence): 9
- Plant response rating, Rape (rape (Brassica napus); Rate 500 g/ha, Preemergence): 7
- Plant response rating, Soybean (soybean (Glycine max); [12]): 0
- Soybean plant response rating (soybean (Glycine max); Rate 62 g/ha, Postemergence): 5
- Soybean plant response rating (soybean (Glycine max); Rate 125 g/ha, Postemergence): 5
- Plant response rating, Soybean (soybean (Glycine max); Rate 125 g/ha, Preemergence): 0
- Plant response rating, Soybean (soybean (Glycine max); Rate 250 g/ha, Postemergence): 7
- Plant response rating, Soybean (soybean (Glycine max); Rate 250 g/ha, Preemergence): 0
- Plant response rating, Soybean (soybean (Glycine max); Rate 500 g/ha, Postemergence): 7
- Plant response rating, Soybean (soybean (Glycine max); Rate 500 g/ha, Preemergence): 0
- Plant response rating, Sugarbeets [9, 12]: 4
- Sugarbeets plant response rating ([9]; Rate 62 g/ha, Postemergence): 9
- Sugarbeets plant response rating ([9]; Rate 125 g/ha, Postemergence): 10
- Plant response rating, Sugarbeets ([9]; Rate 125 g/ha, Preemergence): 8
- Plant response rating, Sugarbeets ([9]; Rate 250 g/ha, Postemergence): 10
- Plant response rating, Sugarbeets ([9]; Rate 250 g/ha, Preemergence): 9
- Plant response rating, Sugarbeets ([9]; Rate 500 g/ha, Postemergence): 10
- Plant response rating, Sugarbeets ([9]; Rate 500 g/ha, Preemergence): 9
- Plant response rating, Velvetleaf [10, 12]: 0
- Velvetleaf plant response rating ([10]; Rate 62 g/ha, Postemergence): 6
- Velvetleaf plant response rating ([10]; Rate 125 g/ha, Postemergence): 6
- Plant response rating, Velvetleaf ([10]; Rate 125 g/ha, Preemergence): 2
- Plant response rating, Velvetleaf ([10]; Rate 250 g/ha, Postemergence): 7
- Plant response rating, Velvetleaf ([10]; Rate 250 g/ha, Preemergence): 4
- Plant response rating, Velvetleaf ([10]; Rate 500 g/ha, Postemergence): 7
- Plant response rating, Velvetleaf ([10]; Rate 500 g/ha, Preemergence): 8
- Plant response rating, Wheat [11, 12]: 0
- Wheat plant response rating ([11]; Rate 62 g/ha, Postemergence): 1
- Wheat plant response rating ([11]; Rate 125 g/ha, Postemergence): 1
- Plant response rating, Wheat ([11]; Rate 125 g/ha, Preemergence): 0
- Plant response rating, Wheat ([11]; Rate 250 g/ha, Postemergence): 1
- Plant response rating, Wheat ([11]; Rate 250 g/ha, Preemergence): 0
- Plant response rating, Wheat ([11]; Rate 500 g/ha, Postemergence): 2
- Plant response rating, Wheat ([11]; Rate 500 g/ha, Preemergence): 1
